Experimental data published in ChEMBL document CHEMBL5032530, “Discovery of Benzocyclic Sulfone Derivatives as Potent CXCR2 Antagonists for Cancer Immunotherapy” (J Med Chem, 2021).
Activity calls are given as the source filed them. No cut-off for these calls is given here.

Experiments:
[1] = molecular target: T1, C-X-C chemokine receptor type 2 (Homo sapiens, UniProt P25025); experiment: Antagonist activity at human CXCR2 expressed in HEK293 cells assessed as inhibition of CXCL8-induced beta-arrestin recruitment preincubated for 30 mins followed by addition of agonist incubated for 90 mins by beta arrestin assay; assay type: functional, cell-based
T1 sequence (P25025 whole entry): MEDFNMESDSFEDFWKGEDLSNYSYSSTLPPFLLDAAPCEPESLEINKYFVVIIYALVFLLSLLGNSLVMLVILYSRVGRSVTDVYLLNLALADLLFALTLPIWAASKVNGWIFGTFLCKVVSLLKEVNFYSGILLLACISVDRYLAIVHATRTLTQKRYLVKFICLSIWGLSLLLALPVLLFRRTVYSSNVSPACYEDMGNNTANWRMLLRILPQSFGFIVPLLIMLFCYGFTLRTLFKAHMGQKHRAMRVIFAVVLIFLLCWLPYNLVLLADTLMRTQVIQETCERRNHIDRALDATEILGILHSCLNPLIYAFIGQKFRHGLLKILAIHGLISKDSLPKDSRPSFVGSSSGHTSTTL

[2] = molecular target: C-C chemokine receptor type 1 (Homo sapiens) (UniProt P32246); experiment: Agonist activity against CCR1 (unknown origin) assessed as induction of beta-arrestin 2 recruitment at 10 microM by beta arrestin assay relative to control; assay type: functional
C-C chemokine receptor type 1 (Homo sapiens), sequence (P32246 whole entry): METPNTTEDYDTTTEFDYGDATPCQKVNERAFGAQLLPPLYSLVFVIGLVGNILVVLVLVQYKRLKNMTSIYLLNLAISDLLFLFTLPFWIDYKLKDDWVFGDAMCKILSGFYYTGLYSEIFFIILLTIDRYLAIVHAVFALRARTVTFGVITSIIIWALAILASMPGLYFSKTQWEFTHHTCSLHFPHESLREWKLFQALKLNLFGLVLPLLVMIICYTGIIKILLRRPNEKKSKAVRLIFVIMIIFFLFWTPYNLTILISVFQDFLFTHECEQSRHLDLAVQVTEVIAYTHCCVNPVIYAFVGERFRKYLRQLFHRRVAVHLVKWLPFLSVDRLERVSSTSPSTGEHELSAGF

[3] = molecular target: C-C chemokine receptor type 3 (Homo sapiens) (UniProt P51677); experiment: Agonist activity against CCR3 (unknown origin) assessed as induction of beta-arrestin 2 recruitment at 10 microM by beta arrestin assay relative to control; assay type: functional
C-C chemokine receptor type 3 (Homo sapiens), sequence (P51677 whole entry): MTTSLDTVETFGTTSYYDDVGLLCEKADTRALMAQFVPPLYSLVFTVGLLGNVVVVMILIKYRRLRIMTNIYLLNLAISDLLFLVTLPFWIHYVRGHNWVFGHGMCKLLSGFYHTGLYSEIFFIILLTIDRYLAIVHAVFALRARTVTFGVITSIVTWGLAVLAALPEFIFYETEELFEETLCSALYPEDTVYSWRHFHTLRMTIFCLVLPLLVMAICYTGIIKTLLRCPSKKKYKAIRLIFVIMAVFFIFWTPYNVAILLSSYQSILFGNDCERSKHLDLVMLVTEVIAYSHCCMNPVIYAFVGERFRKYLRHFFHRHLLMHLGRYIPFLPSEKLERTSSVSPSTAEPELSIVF

[4] = molecular target: C-C chemokine receptor type 3 (Homo sapiens) (UniProt P51677); experiment: Antagonist activity against CCR3 (unknown origin) assessed as inhibition of beta-arrestin 2 recruitment at 10 microM by beta arrestin assay relative to control; assay type: functional; design: scale not given: the % may be the effect or the level left
[5] = molecular target: C-C chemokine receptor type 5 (Homo sapiens) (UniProt P51681); experiment: Agonist activity against CCR5 (unknown origin) assessed as induction of beta-arrestin 2 recruitment at 10 microM by beta arrestin assay relative to control; assay type: functional
C-C chemokine receptor type 5 (Homo sapiens), sequence (P51681 whole entry, looked up): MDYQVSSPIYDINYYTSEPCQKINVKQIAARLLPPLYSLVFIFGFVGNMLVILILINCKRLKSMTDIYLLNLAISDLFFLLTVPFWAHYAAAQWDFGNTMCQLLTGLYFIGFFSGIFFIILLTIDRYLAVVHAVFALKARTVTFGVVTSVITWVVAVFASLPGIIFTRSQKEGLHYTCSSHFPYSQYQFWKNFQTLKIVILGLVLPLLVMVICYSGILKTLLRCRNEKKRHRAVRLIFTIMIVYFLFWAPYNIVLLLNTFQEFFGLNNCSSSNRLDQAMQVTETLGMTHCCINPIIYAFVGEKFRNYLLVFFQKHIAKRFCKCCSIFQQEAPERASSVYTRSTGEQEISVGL

[6] = molecular target: C-C chemokine receptor type 5 (Homo sapiens) (UniProt P51681); experiment: Antagonist activity against CCR5 (unknown origin) assessed as inhibition of beta-arrestin 2 recruitment at 10 microM by beta arrestin assay relative to control; assay type: functional; design: scale not given: the % may be the effect or the level left
[7] = molecular target: C-C chemokine receptor type 7 (Homo sapiens) (UniProt P32248); experiment: Agonist activity against CCR7 (unknown origin) assessed as induction of beta-arrestin 2 recruitment at 10 microM by beta arrestin assay relative to control; assay type: functional
C-C chemokine receptor type 7 (Homo sapiens), sequence (P32248 whole entry): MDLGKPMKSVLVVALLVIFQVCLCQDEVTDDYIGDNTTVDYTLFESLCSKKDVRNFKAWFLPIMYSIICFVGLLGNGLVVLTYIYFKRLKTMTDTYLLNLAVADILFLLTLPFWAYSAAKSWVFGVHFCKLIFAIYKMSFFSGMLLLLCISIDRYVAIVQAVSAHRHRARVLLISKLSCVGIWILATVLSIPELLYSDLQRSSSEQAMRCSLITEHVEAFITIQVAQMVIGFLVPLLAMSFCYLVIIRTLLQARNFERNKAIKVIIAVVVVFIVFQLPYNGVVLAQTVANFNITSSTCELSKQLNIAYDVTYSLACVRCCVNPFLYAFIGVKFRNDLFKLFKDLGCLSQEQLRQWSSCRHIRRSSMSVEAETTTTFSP

[8] = molecular target: C-C chemokine receptor type 10 (Homo sapiens) (UniProt P46092); experiment: Agonist activity against CCR10 (unknown origin) assessed as induction of beta-arrestin 2 recruitment at 10 microM by beta arrestin assay relative to control; assay type: functional
C-C chemokine receptor type 10 (Homo sapiens), sequence (P46092 whole entry): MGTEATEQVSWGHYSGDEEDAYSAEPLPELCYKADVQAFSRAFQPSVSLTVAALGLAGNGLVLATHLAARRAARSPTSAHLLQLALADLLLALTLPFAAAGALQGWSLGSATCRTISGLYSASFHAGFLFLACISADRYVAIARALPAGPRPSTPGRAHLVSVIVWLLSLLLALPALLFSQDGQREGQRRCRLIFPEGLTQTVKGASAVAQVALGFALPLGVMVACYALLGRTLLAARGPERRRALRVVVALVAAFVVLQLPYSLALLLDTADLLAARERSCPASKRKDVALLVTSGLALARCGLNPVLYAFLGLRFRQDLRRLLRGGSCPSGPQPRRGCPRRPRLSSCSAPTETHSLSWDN

[9] = molecular target: C-C chemokine receptor type 10 (Homo sapiens) (UniProt P46092); experiment: Antagonist activity against CCR10 (unknown origin) assessed as inhibition of beta-arrestin 2 recruitment at 10 microM by beta arrestin assay relative to control; assay type: functional; design: scale not given: the % may be the effect or the level left
[10] = molecular target: Chemerin-like receptor 1 (Homo sapiens) (UniProt Q99788); experiment: Antagonist activity against CMKLR1 (unknown origin) assessed as inhibition of beta-arrestin 2 recruitment at 10 microM by beta arrestin assay relative to control; assay type: functional; design: scale not given: the % may be the effect or the level left
Chemerin-like receptor 1 (Homo sapiens), sequence (Q99788 whole entry): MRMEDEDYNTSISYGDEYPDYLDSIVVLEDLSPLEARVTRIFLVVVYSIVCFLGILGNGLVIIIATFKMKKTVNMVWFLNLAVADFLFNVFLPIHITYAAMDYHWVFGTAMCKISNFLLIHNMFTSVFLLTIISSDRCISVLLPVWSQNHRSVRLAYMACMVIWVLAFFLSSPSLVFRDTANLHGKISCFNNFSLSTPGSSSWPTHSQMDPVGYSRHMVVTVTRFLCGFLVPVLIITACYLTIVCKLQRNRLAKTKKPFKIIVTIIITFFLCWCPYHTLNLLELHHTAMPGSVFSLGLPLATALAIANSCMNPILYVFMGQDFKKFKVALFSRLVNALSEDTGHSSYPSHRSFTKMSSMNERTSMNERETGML

[11] = molecular target: C-X-C chemokine receptor type 1 (Homo sapiens) (UniProt P25024); experiment: Antagonist activity against CXCR1 (unknown origin) assessed as inhibition of beta-arrestin 2 recruitment at 10 microM by beta arrestin assay relative to control; assay type: functional; design: scale not given: the % may be the effect or the level left
C-X-C chemokine receptor type 1 (Homo sapiens), sequence (P25024 whole entry): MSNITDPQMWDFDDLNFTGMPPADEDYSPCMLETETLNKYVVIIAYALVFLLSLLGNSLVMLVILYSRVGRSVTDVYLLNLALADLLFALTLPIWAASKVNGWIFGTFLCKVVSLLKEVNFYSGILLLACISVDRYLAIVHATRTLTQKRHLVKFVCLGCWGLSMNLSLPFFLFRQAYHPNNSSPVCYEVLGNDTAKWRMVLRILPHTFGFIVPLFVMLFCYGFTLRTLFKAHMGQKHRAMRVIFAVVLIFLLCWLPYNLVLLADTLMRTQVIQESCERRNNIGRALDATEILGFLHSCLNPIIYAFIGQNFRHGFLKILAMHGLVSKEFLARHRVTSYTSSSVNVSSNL

[12] = molecular target: C-X-C chemokine receptor type 2 (Homo sapiens) (UniProt P25025); experiment: Agonist activity against CXCR2 (unknown origin) assessed as induction of beta-arrestin 2 recruitment at 10 microM by beta arrestin assay relative to control; assay type: functional
[13] = molecular target: C-X-C chemokine receptor type 3 (Homo sapiens) (UniProt P49682); experiment: Antagonist activity against CXCR3 (unknown origin) assessed as inhibition of beta-arrestin 2 recruitment at 10 microM by beta arrestin assay relative to control; assay type: functional; design: scale not given: the % may be the effect or the level left
C-X-C chemokine receptor type 3 (Homo sapiens), sequence (P49682 whole entry): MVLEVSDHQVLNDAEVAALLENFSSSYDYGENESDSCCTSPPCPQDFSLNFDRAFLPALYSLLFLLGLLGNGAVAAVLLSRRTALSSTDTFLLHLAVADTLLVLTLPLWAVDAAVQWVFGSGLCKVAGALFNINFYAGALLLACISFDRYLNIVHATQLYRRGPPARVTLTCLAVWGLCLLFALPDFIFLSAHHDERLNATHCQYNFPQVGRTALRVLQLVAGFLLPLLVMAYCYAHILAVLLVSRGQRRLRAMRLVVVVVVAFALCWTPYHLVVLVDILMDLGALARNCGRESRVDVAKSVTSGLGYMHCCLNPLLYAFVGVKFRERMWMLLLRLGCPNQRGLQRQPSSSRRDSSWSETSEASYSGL

[14] = molecular target: C-X-C chemokine receptor type 6 (Homo sapiens) (UniProt O00574); experiment: Antagonist activity against CXCR6 (unknown origin) assessed as inhibition of beta-arrestin 2 recruitment at 10 microM by beta arrestin assay relative to control; assay type: functional; design: scale not given: the % may be the effect or the level left
C-X-C chemokine receptor type 6 (Homo sapiens), sequence (O00574 whole entry, looked up): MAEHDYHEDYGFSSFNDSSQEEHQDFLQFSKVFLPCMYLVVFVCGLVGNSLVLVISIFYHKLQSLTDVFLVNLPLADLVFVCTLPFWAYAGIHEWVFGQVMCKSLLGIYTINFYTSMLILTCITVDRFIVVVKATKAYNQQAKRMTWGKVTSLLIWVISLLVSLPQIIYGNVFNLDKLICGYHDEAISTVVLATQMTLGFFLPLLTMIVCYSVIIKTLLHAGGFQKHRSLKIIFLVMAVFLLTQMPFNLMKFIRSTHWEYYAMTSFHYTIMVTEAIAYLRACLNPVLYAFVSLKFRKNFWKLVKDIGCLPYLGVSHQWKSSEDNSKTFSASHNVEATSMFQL

[15] = molecular target: Atypical chemokine receptor 3 (Homo sapiens) (UniProt P25106); experiment: Antagonist activity against CXCR7 (unknown origin) assessed as inhibition of beta-arrestin 2 recruitment at 10 microM by beta arrestin assay relative to control; assay type: functional; design: scale not given: the % may be the effect or the level left
Atypical chemokine receptor 3 (Homo sapiens), sequence (P25106 whole entry): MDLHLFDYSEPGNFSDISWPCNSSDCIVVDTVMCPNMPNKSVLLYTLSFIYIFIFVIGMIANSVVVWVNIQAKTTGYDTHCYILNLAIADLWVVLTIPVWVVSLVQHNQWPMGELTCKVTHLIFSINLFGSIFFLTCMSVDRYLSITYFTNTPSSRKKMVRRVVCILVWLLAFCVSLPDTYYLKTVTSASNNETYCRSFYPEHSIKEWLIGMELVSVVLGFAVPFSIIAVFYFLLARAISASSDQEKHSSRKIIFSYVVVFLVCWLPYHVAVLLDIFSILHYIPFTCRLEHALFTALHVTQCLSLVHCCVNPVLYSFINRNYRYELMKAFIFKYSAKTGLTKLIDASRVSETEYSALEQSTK

[16] = Tmax in ICR mouse at 30 mg/kg, po measured upto 48 hrs; assay type: ADME, organism-based; conditions: in vivo
[17] = Cmax in ICR mouse at 30 mg/kg, po measured upto 48 hrs; assay type: ADME, organism-based; design: route oral, dose 30 mg/kg, time <=48; conditions: in vivo
[18] = AUC (0 to t) in ICR mouse at 3 mg/kg, iv measured upto 48 hrs; assay type: ADME, organism-based; design: route intravenous, dose 3 mg/kg, time <=48; conditions: in vivo
[19] = AUC (0 to t) in ICR mouse at 30 mg/kg, po measured upto 48 hrs; assay type: ADME, organism-based; design: route oral, dose 30 mg/kg, time <=48; conditions: in vivo
[20] = Apparent volume of distribution in ICR mouse at 3 mg/kg, iv measured upto 48 hrs; assay type: ADME, organism-based; conditions: in vivo, read-out: Vz
[21] = Clearance in ICR mouse at 30 mg/kg, po measured upto 48 hrs; assay type: ADME, organism-based; conditions: ICR, in vivo
Panc02 [22] = experiment: Antitumour activity against mouse Panc02 cells xenografted in mouse assessed as tumour growth inhibition at 10 mg/kg, po bid […]; assay type: functional; conditions: read-out: TGI
Panc02 [23] = experiment: Antitumour activity against mouse Panc02 cells xenografted in mouse assessed as tumour growth inhibition at 30 mg/kg, po bid […]; assay type: functional; conditions: read-out: TGI
PANC-1 = experiment: Cytotoxicity against human PanC-1 cells assessed as reduction in cell viability measured after 72 hrs by CCK8 assay; assay type: cell-based; conditions: PANC-1, 72 h
SW1990 = experiment: Cytotoxicity against human SW1990 cells assessed as reduction in cell viability measured after 72 hrs by CCK8 assay; assay type: cell-based; conditions: SW1990, 72 h
BXPC-3 = experiment: Cytotoxicity against human BxPC3 cells assessed as reduction in cell viability measured after 72 hrs by CCK8 assay; assay type: cell-based; conditions: BXPC-3, 72 h
[24] = Cytotoxicity against human PBMC cells assessed as reduction in cell viability measured after 72 hrs by CCK8 assay; assay type: cell-based
Panc02 [25] = experiment: Antitumour activity against mouse Panc02 cells xenografted in mouse assessed as reduction in infiltration of neutrophils into tumor tissue at 3 mg/kg, po bid measured after 15 days by flow cytometry analysis; assay type: functional, organism-based; conditions: time 15.0 day
Panc02 [26] = experiment: Antitumour activity against mouse Panc02 cells xenografted in mouse assessed as change in CD11b expressing immune cells infiltration into tumor tissue using LY6G antibody at 30 mg/kg, po bid measured after 15 days by flow cytometry analysis (reference value: 29.7%); assay type: functional; conditions: time 15 day
Panc02 [27] = experiment: Antitumour activity against mouse Panc02 cells xenografted in mouse assessed as change in CD11b expressing immune cells infiltration into tumor tissue using LY6C antibody at 10 mg/kg, po bid measured after 15 days by flow cytometry analysis (reference value: 20.5%); assay type: functional; conditions: time 15 day
Mus musculus = experiment: Effect on granulocytic MDSCs level in mouse xenografted with […] cells at 10 to 30 mg/kg, po bid measured after 15 days by immunohistochemical analysis; assay type: ADME, organism-based; conditions: in vivo, 360 h, dose 10-30 mg/kg, time 15 day

In the case of `Cc1c(F)cccc1NC(=O)Nc1ccc2c(c1O)S(=O)(=O)CCC2`, the IC50 [1] is reported as 0.095 µM, the Activity [2] is reported as less than 10% and the Activity [3] is reported as less than 10%. For the same compound, the Activity [4] was 13%, the Activity [5] was less than 10% and the Activity [6] was less than 10%. For the same compound, the Activity [7] was less than 10%, the Activity [8] was less than 10% and the Activity [9] was less than 10%. It also gave an Activity [10] of less than 10%, an Activity [11] of 33% and an Activity [12] of less than 10%. For the same compound, the Activity [13] was less than 10%, the Activity [14] was 17% and the Activity [15] was 15%. The Tmax [16] was 1.41 h, the Cmax [17] was 19 ng/mL and the AUC(0-t) at 48 h [18] was 357 ng·h/mL. It also gave an AUC(0-t) at 48 h [19] of 218 ng·h/mL, a Vd [20] of 49 L/kg and a CL/F [21] of 2190 mL/min/kg. For the same compound, the inhibition in vivo at 10 mg/kg (Panc02 [22]) was 42.5%, the inhibition in vivo at 30 mg/kg (Panc02 [23]) was 61.4% and the IC50 (PANC-1) was greater than 10 µM. It also gave an IC50 (SW1990) greater than 10 µM, an IC50 (BXPC-3) greater than 10 µM and an IC50 [24] greater than 10 µM. For the same compound, the Activity (Panc02 [25]) was “Active”, the Activity (Panc02 [26]) was 7.6% and the Activity (Panc02 [27]) was 15.6%. For the same compound, the Activity (Mus musculus) was “Non-Toxic”.
